# According to patent US11708562B2, “Differentiation of human embryonic stem cells” (Janssen Biotech, Inc., priority 2006, dated 2023):
# Test system: human embryonic stem cell line H7
# Assay: FACS protein expression with time following activin A treatment (Table IIB)
# Assay type: cell-based
# Details: AA 100 ng/ml
# Description: The level of expression of definitive endoderm markers was examined by PCR (FIGS. 1A and 1B), FACS (results summarized in Table I), and immunohistochemistry (FIGS. 2A, 2B and 2C).
# Adhered cells were removed from culture plates by five-minute incubation with TrypLE™ Express solution (Invitrogen, CA). Released cells were resuspended in human embryonic stem cell culture medium and recovered by centrifugation, followed by washing and resuspending the cells in a staining buffer consisting of 2% BSA, 0.05% sodium azide in PBS (Sigma, MO). As appropriate, the cells were Fc-receptor blocked for 15 minutes using a 0.1% γ-globulin (Sigma) solution. […] Controls included appropriate isotype matched antibodies, unstained cells, and cells stained only with secondary conjugated antibody. All incubations with antibodies were performed for 30 mins at 4° C. after which the cells were washed with the staining buffer. Samples that were stained with unconjugated primary antibodies were incubated for an additional 30 mins at 4° C. with secondary conjugated PE or -APC labeled antibodies. See Table I for a list of secondary antibodies used. Washed cells were pelleted and resuspended in the staining buffer, and the cell surface molecules were identified using a FACS Array (BD Biosciences) instrument, collecting at least 10,000 events.
substance,measurement,setting,value
Activin A: a member of the TGFβ superfamily; growth factor (R&D Systems) used to differentiate human embryonic stem cells,CXCR4+ C-Kit+ cells (FACS),1-day,2.97%
same,CXCR4+ CD9+ cells (FACS),1-day,8.13%
same,CXCR4+ EPCAM+ cells (FACS),1-day,14.58%
same,CXCR4+ cells (FACS),1-day,6%
same,CXCR4+ C-Kit+ cells (FACS),3-day,31.56%
same,CXCR4+ CD9+ cells (FACS),3-day,24.11%
same,CXCR4+ EPCAM+ cells (FACS),3-day,36.67%
same,CXCR4+ cells (FACS),3-day,38%
same,CXCR4+ C-Kit+ cells (FACS),5-day,55.21%
same,CXCR4+ CD9+ cells (FACS),5-day,2.1%
same,CXCR4+ EPCAM+ cells (FACS),5-day,54.5%
same,CXCR4+ cells (FACS),5-day,65.5%
